Data on six molecules can be found in ChEMBL document CHEMBL1140205, “Discovery and development of fatty acid amide hydrolase (FAAH) inhibitors” (J Med Chem, 2008).

Data set [1] deals with T1, Fatty-acid amide hydrolase 1 (Rattus norvegicus, UniProt P97612).
T1 sequence (P97612 whole entry): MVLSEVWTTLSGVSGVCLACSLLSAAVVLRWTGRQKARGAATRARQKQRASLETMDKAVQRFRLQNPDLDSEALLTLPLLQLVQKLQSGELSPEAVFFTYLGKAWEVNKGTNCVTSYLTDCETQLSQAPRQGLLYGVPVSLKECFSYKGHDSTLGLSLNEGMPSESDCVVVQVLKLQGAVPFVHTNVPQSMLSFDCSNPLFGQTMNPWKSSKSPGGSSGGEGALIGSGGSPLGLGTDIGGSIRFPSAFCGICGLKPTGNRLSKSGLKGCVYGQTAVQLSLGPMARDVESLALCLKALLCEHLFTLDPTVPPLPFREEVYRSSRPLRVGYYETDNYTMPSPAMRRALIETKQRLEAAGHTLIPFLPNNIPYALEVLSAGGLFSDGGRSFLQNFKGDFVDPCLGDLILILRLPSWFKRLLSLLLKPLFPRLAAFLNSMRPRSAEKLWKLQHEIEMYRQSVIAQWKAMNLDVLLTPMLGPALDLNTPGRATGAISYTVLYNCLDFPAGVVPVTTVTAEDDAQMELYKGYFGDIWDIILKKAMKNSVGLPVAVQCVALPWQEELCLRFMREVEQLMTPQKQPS

In data set [2] the target is T1, Fatty-acid amide hydrolase 1. The data set is described as follows: Inhibition of rat FAAH.
The species entered for the next data set is Rattus norvegicus. Put plainly: Ex vivo inhibition of FAAH activity in rat brain after 16 hrs. Format: functional.
Substrate in data set [3]: CCCCCCCC/C=C\CCCCCCCC(N)=O
Put plainly: Activity of FAAH.

Take `O=C1O/C(=C/Br)CCC1c1cccc2ccccc12` (stereo unspecified) [BROMOENOL LACTONE]: the concentration for half-maximal inhibition (IC50) in data set [1] is 0.8 µM.
In turn, `CN(C)C(=O)n1nnnc1Cc1ccc(-c2ccccc2)cc1` displayed an IC50 in data set [2] of 0.0124 µM.
Turning to `NC(=O)c1cccc(-c2cccc(OC(=O)NC3CCCCC3)c2)c1` [URB-597], in the data set listed under Rattus norvegicus, the “inhibition (INH)” value was found to be 90%.
As to `CCCC(C)C1(CC)C(=O)NC(=S)NC1=O` (stereo unspecified) [THIOPENTAL], the half-maximal inhibitory concentration (IC50) in data set [2] is 2000 µM.
`CC(C)c1cccc(C(C)C)c1O` [PROPOFOL] displayed an IC50 in data set [2] of 14 µM.

B1: Fatty-acid amide hydrolase 1 (Homo sapiens), O00519 (protein)
chain: MVQYELWAALPGASGVALACCFVAAAVALRWSGRRTARGAVVRARQRQRAGLENMDRAAQRFRLQNPDLDSEALLALPLPQLVQKLHSRELAPEAVLFTYVGKAWEVNKGTNCVTSYLADCETQLSQAPRQGLLYGVPVSLKECFTYKGQDSTLGLSLNEGVPAECDSVVVHVLKLQGAVPFVHTNVPQSMFSYDCSNPLFGQTVNPWKSSKSPGGSSGGEGALIGSGGSPLGLGTDIGGSIRFPSSFCGICGLKPTGNRLSKSGLKGCVYGQEAVRLSVGPMARDVESLALCLRALLCEDMFRLDPTVPPLPFREEVYTSSQPLRVGYYETDNYTMPSPAMRRAVLETKQSLEAAGHTLVPFLPSNIPHALETLSTGGLFSDGGHTFLQNFKGDFVDPCLGDLVSILKLPQWLKGLLAFLVKPLLPRLSAFLSNMKSRSAGKLWELQHEIEVYRKTVIAQWRALDLDVVLTPMLAPALDLNAPGRATGAVSYTMLYNCLDFPAGVVPVTTVTAEDEAQMEHYRGYFGDIWDKMLQKGMKKSVGLPVAVQCVALPWQEELCLRFMREVERLMTPEKQSS
As to B1, the Km in data set [3] was determined as 5 µM.
